Assay results taken from ChEMBL document CHEMBL4400514, “Medicinal chemistry of metal chelating fragments in metalloenzyme active sites: A perspective” (Eur J Med Chem, 2019).

What was measured:
[1] = target: T1, Deoxyhypusine hydroxylase (Plasmodium falciparum (isolate 3D7)) (UniProt Q8I701); assay: Inhibition of Plasmodium falciparum DOHH expressed in Escherichia coli BL21 cells at 1 mM after 24 hrs by GC/MS analysis relative to control
T1 sequence (whole entry): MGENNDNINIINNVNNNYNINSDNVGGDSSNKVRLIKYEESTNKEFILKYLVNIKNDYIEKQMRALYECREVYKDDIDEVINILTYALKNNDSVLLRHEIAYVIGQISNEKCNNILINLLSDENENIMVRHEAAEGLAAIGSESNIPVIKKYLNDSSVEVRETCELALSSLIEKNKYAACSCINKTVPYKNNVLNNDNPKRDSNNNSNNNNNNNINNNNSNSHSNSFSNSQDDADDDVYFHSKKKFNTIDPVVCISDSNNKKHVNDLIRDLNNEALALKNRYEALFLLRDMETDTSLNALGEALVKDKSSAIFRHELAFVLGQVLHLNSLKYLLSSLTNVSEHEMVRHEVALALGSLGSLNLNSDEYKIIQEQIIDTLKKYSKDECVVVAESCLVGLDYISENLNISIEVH

[2] = target: T2, Deoxyhypusine hydroxylase (Homo sapiens, UniProt Q9BU89); assay: Inhibition of DOHH (unknown origin)
T2 sequence (Q9BU89 whole entry): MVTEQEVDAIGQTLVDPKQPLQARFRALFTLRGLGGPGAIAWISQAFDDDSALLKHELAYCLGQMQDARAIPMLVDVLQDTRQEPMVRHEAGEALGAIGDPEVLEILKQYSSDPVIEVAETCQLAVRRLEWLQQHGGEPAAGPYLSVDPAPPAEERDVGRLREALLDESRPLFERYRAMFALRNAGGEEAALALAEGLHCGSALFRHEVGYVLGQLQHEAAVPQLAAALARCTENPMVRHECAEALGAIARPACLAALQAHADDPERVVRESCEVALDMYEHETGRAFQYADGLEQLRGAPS

Structure (SMILES)	inhibition [1] [%]	IC50 [2] [µM]
CCOc1ccc(-c2nonc2NC(=O)c2cccc(C)c2)cc1OCC	43.3	
COc1ccc(-c2nc3cc(Cc4ccc5[nH]c(-c6ccc(OC)cc6)nc5c4)ccc3[nH]2)cc1	38.8	
c1ccc(Cn2c(/N=N/c3c(Nc4ccccc4)ccc4ccccc34)nc3ccccc32)cc1	35.9	
Cc1c(O)c(=O)ccn1C [DEFERIPRONE]		5 to 200
N[C@@H](Cn1ccc(=O)c(O)c1)C(=O)O [L-MIMOSINE]		5 to 200

Second part, the molecule after the results:

inhibition [1] [%]	IC50 [2] [µM]	Structure (SMILES)
	5 to 200	Cc1cc(C2CCCCC2)n(O)c(=O)c1 [CICLOPIROX]
	5 to 200	CC(=O)N(O)CCCCCNC(=O)CCC(=O)N(O)CCCCCNC(=O)CCC(=O)N(O)CCCCCN [DEFEROXAMINE]
	5 to 200	c1ccc(-c2ccccn2)nc1 [DIPYRIDYL]
